Reference: paper PMC10066365, “Nemacol is a small molecule inhibitor of C. elegans vesicular acetylcholine transporter with anthelmintic potential” (Nature Communications, 2023)
Where “and” joins values, the source holds several entries; their conditions need not be identical. Identical values can stand only once. Like-named read-outs stand apart in the source and are kept apart here.

Experiments:
Pristionchus pacificus = Pristionchus pacificus motor disruption dose-response on solid media, 1 h; conditions: for mean % any phene (coiled, jerky-Unc or paralyzed): Pristionchus pacificus young adults, mean of three biological replicates; for rep 1 atypical locomotion / rep 1 coiled / rep 1 no phene / rep 1 paralyzed: count of 20 animals per trial, one hour
[1] = tested on: C. elegans unc-17 mutants; conditions: 60 min
Description: Significance was calculated using Fisher’s method (one-sided comparisons; see 'Methods'). […] Worms were incubated on the plates for 60 min.
Locomotor phenotype analyses were done in 24-well plates with 1 mL of MYOB substrate (27.5 g Trizma HCl, 12 g Trizma Base, 230 g bacto tryptone, 10 g NaCl, 0.4 g cholesterol (95%)) seeded with 25 µL of OP50 Escherichia coli on each well. Each compound was added to the MYOB substrate before pouring to achieve the desired final concentrations of 30 µM or 60 µM after diffusion through the media. Synchronized young adult worms are transferred into each well using a platinum wire pick. A Leica MZ75 stereomicroscope was used to visualize the movement of worms on the solid substrate. The specific dominant locomotor phenotype (i.e. ‘Punc’, ‘paralyzed’, ‘coiler’ or ‘wild-type locomotion’) was scored after the touch on the head with a platinum wire over a ~3–5 s of observation. […] Coiled animals were not scored as paralyzed despite sometimes not responding to light touch.

[2] = unc-17 (e245), 15 µM, adult worms, average of 3 biological repeats
[3] = unc-17 (e245), 30 µM, adult worms, average of 3 biological repeats
[4] = unc-17 (e245), 60 µM, adult worms, average of 3 biological repeats
[5] = unc-17 (e245), 15 µM, single Bio Rep
[6] = unc-17 (e245), 30 µM, single Bio Rep
[7] = unc-17 (e245), 60 µM, single Bio Rep
[8] = unc-17 (e327), 15 µM, single Bio Rep
[9] = unc-17 (e327), 30 µM, single Bio Rep
[10] = unc-17 (e327), 60 µM, single Bio Rep

O=[N+]([O-])c1ccc(N2CCN(CC3CCCCC3)CC2)cc1 [Nemacol-1] was tested, and the “mean % any phene (coiled, jerky-Unc or paralyzed)” value (“mean % any phene” for short) (Pristionchus pacificus; conc 3.75, observed at one hour) was 0%, the “mean % any phene” value (Pristionchus pacificus; conc 15, observed at one hour) was 56.6667% and the “mean % any phene” value (Pristionchus pacificus; conc 60, observed at one hour) was 100%. The EC50 (Pristionchus pacificus; Pristionchus pacificus, 1 h, read-out: P. pacificus motor disruption EC50) was 14.1 ± 2.9 µM, the “rep 1 atypical locomotion” value (Pristionchus pacificus; conc 3.75) was 4 and the “rep 1 coiled” value (Pristionchus pacificus; conc 3.75) was 1. The “rep 1 no phene” value (Pristionchus pacificus; conc 3.75) was 15, the “rep 1 paralyzed” value (Pristionchus pacificus; conc 3.75) was 0 and the “rep 1 atypical locomotion” value (Pristionchus pacificus; conc 15) was 13. The “rep 1 coiled” value (Pristionchus pacificus; conc 15) was 1, the “rep 1 no phene” value (Pristionchus pacificus; conc 15) was 6 and the “rep 1 paralyzed” value (Pristionchus pacificus; conc 15) was 0. The “rep 1 atypical locomotion” value (Pristionchus pacificus; conc 60) was 0, the “rep 1 coiled” value (Pristionchus pacificus; conc 60) was 2 and the “rep 1 no phene” value (Pristionchus pacificus; conc 60) was 0. The “rep 1 paralyzed” value (Pristionchus pacificus; conc 60) was 18, the “Fraction Coiled” value [1, 2] was 0.83 and the “Fraction Jerky-Unc” value [1, 2] was 0.17. For the same compound, the “Fraction No Phenotype” value [1, 2] was 0.00, the “Fraction Parayzed” value [1, 2] was 0.00 and the “Fraction Coiled” value [1, 3] was 0.78. For the same compound, the “Fraction Jerky-Unc” value [1, 3] was 0.13, the “Fraction No Phenotype” value [1, 3] was 0.00 and the “Fraction Parayzed” value [1, 3] was 0.09. For the same compound, the “Fraction Coiled” value [1, 4] was 0.80, the “Fraction Jerky-Unc” value [1, 4] was 0.0556 and the “Fraction No Phenotype” value [1, 4] was 0.00. For the same compound, the “Fraction Parayzed” value [1, 4] was 0.15, the “Fraction Coiled, Averages of 3 biological repeats” value ([1]; unc-17 (e245), 15 µM) was 0.78 and the “Fraction Jerky-Unc, Averages of 3 biological repeats” value ([1]; unc-17 (e245), 15 µM) was 0.19. For the same compound, the “Fraction No Phenotype, Averages of 3 biological repeats” value ([1]; unc-17 (e245), 15 µM) was 0.00, the “Fraction Parayzed, Averages of 3 biological repeats” value ([1]; unc-17 (e245), 15 µM) was 0.037 and the “C1 (loose coil) worm count” value [1, 5] was 4 and 2 and 3. For the same compound, the “C2 (tight coil) worm count” value [1, 5] was 11 and 12 and 10, the “Fraction Coiled” value [1, 5] was 0.72 and 0.83 and 0.78 and the “Fraction Jerky-Unc” value [1, 5] was 0.1667 and 0.2222. For the same compound, the “Fraction No Phenotype” value [1, 5] was 0.00, the “J (jerky-unc) worm count” value [1, 5] was 3 and 4 and the “NP (no phene) worm count” value [1, 5] was 0. For the same compound, the “Fraction Coiled, Averages of 3 biological repeats” value ([1]; unc-17 (e245), 30 µM) was 0.87, the “Fraction Jerky-Unc, Averages of 3 biological repeats” value ([1]; unc-17 (e245), 30 µM) was 0.0741 and the “Fraction No Phenotype, Averages of 3 biological repeats” value ([1]; unc-17 (e245), 30 µM) was 0.00. For the same compound, the “Fraction Parayzed, Averages of 3 biological repeats” value ([1]; unc-17 (e245), 30 µM) was 0.0556, the “C1 (loose coil) worm count” value [1, 6] was 2 and 1 and the “C2 (tight coil) worm count” value [1, 6] was 14 and 15 and 13. The “Fraction Coiled” value [1, 6] was 0.83 and 0.89, the “Fraction No Phenotype” value [1, 6] was 0.00 and the “NP (no phene) worm count” value [1, 6] was 0. For the same compound, the “Fraction Coiled, Averages of 3 biological repeats” value ([1]; unc-17 (e245), 60 µM) was 0.76, the “Fraction Jerky-Unc, Averages of 3 biological repeats” value ([1]; unc-17 (e245), 60 µM) was 0.037 and the “Fraction No Phenotype, Averages of 3 biological repeats” value ([1]; unc-17 (e245), 60 µM) was 0.00. The “Fraction Parayzed, Averages of 3 biological repeats” value ([1]; unc-17 (e245), 60 µM) was 0.20, the “C1 (loose coil) worm count” value [1, 7] was 4 and 2 and the “C2 (tight coil) worm count” value [1, 7] was 12 and 8 and 11. For the same compound, the “Fraction Coiled” value [1, 7] was 0.83 and 0.89 and 0.56, the “Fraction No Phenotype” value [1, 7] was 0.00 and the “NP (no phene) worm count” value [1, 7] was 0. The “Fraction Coiled, Averages of 3 biological repeats” value ([1]; unc-17 (e327), 15 µM) was 0.77, the “Fraction Jerky-Unc, Averages of 3 biological repeats” value ([1]; unc-17 (e327), 15 µM) was 0.15 and the “Fraction No Phenotype, Averages of 3 biological repeats” value ([1]; unc-17 (e327), 15 µM) was 0.00. For the same compound, the “Fraction Parayzed, Averages of 3 biological repeats” value ([1]; unc-17 (e327), 15 µM) was 0.08, the “C1 (loose coil) worm count” value [1, 8] was 3 and 4 and the “C2 (tight coil) worm count” value [1, 8] was 10 and 12 and 8. The “Fraction Coiled” value [1, 8] was 0.75 and 0.72 and 0.83, the “Fraction Jerky-Unc” value [1, 8] was 0.125 and 0.1667 and the “Fraction No Phenotype” value [1, 8] was 0.00. For the same compound, the “J (jerky-unc) worm count” value [1, 8] was 3 and 2, the “NP (no phene) worm count” value [1, 8] was 0 and the “Fraction Coiled, Averages of 3 biological repeats” value ([1]; unc-17 (e327), 30 µM) was 0.66. For the same compound, the “Fraction Jerky-Unc, Averages of 3 biological repeats” value ([1]; unc-17 (e327), 30 µM) was 0.12, the “Fraction No Phenotype, Averages of 3 biological repeats” value ([1]; unc-17 (e327), 30 µM) was 0.00 and the “Fraction Parayzed, Averages of 3 biological repeats” value ([1]; unc-17 (e327), 30 µM) was 0.23. For the same compound, the “C1 (loose coil) worm count” value [1, 9] was 2 and 4, the “C2 (tight coil) worm count” value [1, 9] was 8 and 9 and 7 and the “Fraction Coiled” value [1, 9] was 0.69 and 0.56 and 0.72. The “Fraction No Phenotype” value [1, 9] was 0.00, the “NP (no phene) worm count” value [1, 9] was 0 and the “Fraction Coiled, Averages of 3 biological repeats” value ([1]; unc-17 (e327), 60 µM) was 0.48. For the same compound, the “Fraction Jerky-Unc, Averages of 3 biological repeats” value ([1]; unc-17 (e327), 60 µM) was 0.037, the “Fraction No Phenotype, Averages of 3 biological repeats” value ([1]; unc-17 (e327), 60 µM) was 0.00 and the “Fraction Parayzed, Averages of 3 biological repeats” value ([1]; unc-17 (e327), 60 µM) was 0.48. The “C1 (loose coil) worm count” value [1, 10] was 4 and 3 and 2, the “Fraction No Phenotype” value [1, 10] was 0.00 and the “NP (no phene) worm count” value [1, 10] was 0.
